Measured values: the supplement of paper PMC11451515

How the values were obtained:
Conditions in all cases: 48 h
NOMO1 [1] = assay: AUC of viability dose-response curve (% viability x log10 dose units); higher = less sensitive
Method in brief: (§1)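 Leukemia cells adapted to each medium (500 or 1000 cells/well, 1536-well plates) were exposed to library compounds in DMSO for 48 h at 37°C at 11 threefold doses, 47 μM to 0.79 nM. Luminescence by CellTiter-Glo One was normalised per plate to DMSO and cell-free wells, then fitted with a four-parameter log-logistic curve on log10 dose. Curves above full viability were scaled and quality-control failures removed before area under the curve was integrated by trapezoidal rule.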

P12-Ichikawa [2] = assay: as above
Method in brief: as §1

SEM cells [3] = assay: as above
Method in brief: as §1

NOMO1 [4] = assay: cell viability relative to DMSO control; higher = less cytotoxic
Method in brief: (§2)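 Library compounds in DMSO were pin-dosed into 1536-well plates (5 μl) holding NOMO1 or SEM (500 cells/well) or P12-Ichikawa (1000 cells/well) leukemia cells, across an 11-point threefold series of 47 μM to 0.79 nM. Each cell line had been adapted for at least four passages in each medium. CellTiter-Glo One luminescence was read after 48 h at 37°C. Viability is the per-plate percentage relative to DMSO wells, with cell-free wells as background.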

P12-Ichikawa [5] = assay: as above
Method in brief: as §2

SEM cells [6] = assay: as above
Method in brief: as §2

CC(C)C[C@H](NC(=O)c1cc2ccccc2s1)C(=O)N1CCN(C(=O)[C@H](CO)N[S+](=O)([O-])c2ccc(Cl)cc2Cl)CC1
AUC of viability dose-response curve
Conditions	NOMO1 [1]	P12-Ichikawa [2]	SEM cells [3]
HPLM + 10% dialyzed FBS	461	462	451
RPMI 5 mM glucose + 10% FBS	468	464	453
RPMI 5 mM glucose + 10% dialyzed FBS	436	462	439

CO[C@H]1C[C@H]2OC[C@@]2(OC(C)=O)[C@H]3[C@H](OC(=O)C4=CC=CC=C4)[C@]5(O)C[C@H](OC(=O)[C@H](O)[C@@H](NC(=O)OC(C)(C)C)C6=CC=CC=C6)/C(=C(/[C@@H](OC)C(=O)[C@]13C)C5(C)C)C
cell viability [%]
Conditions	NOMO1 [4]	P12-Ichikawa [5]	SEM cells [6]
HPLM + 10% dialyzed FBS, 0.000781 µM	75.9	78.2	61.3
HPLM + 10% dialyzed FBS, 0.00234 µM	46	87.6	70.2
HPLM + 10% dialyzed FBS, 0.00702 µM	28.5	29.3	80.6
HPLM + 10% dialyzed FBS, 0.0211 µM	25.8	28.4	15.4
HPLM + 10% dialyzed FBS, 0.0632 µM	19.6	19	16.5
HPLM + 10% dialyzed FBS, 0.19 µM	19.9	18.9	17.7
HPLM + 10% dialyzed FBS, 0.569 µM	19.3	18.8	16
HPLM + 10% dialyzed FBS, 1.71 µM	18.8	20.1	15
HPLM + 10% dialyzed FBS, 5.12 µM	27.7	12.1	18.1
HPLM + 10% dialyzed FBS, 15.4 µM	19.9	13.4	13.6
HPLM + 10% dialyzed FBS, 46.1 µM	7.15	7.21	15.8
RPMI 5 mM glucose + 10% FBS, 0.000781 µM	68.2	69.9	89.4
RPMI 5 mM glucose + 10% FBS, 0.00234 µM	79.6	81.6	96.1
RPMI 5 mM glucose + 10% FBS, 0.00702 µM	86.1	70.8	11.1
RPMI 5 mM glucose + 10% FBS, 0.0211 µM	14.6	30.4	9.9
RPMI 5 mM glucose + 10% FBS, 0.0632 µM	10.7	11.6	12.3
RPMI 5 mM glucose + 10% FBS, 0.19 µM	13.3	15.3	14
RPMI 5 mM glucose + 10% FBS, 0.569 µM	11.9	15.2	11.2
RPMI 5 mM glucose + 10% FBS, 1.71 µM	12.6	15.9	15.1
RPMI 5 mM glucose + 10% FBS, 5.12 µM	14.9	10.5	12.7
RPMI 5 mM glucose + 10% FBS, 15.4 µM	11	10.6	13.2
RPMI 5 mM glucose + 10% FBS, 46.1 µM	4.22	10.8	13.4
RPMI 5 mM glucose + 10% dialyzed FBS, 0.000781 µM	64.3	73.7	64
RPMI 5 mM glucose + 10% dialyzed FBS, 0.00234 µM	81	71.1	61.2
RPMI 5 mM glucose + 10% dialyzed FBS, 0.00702 µM	82.7	67.9	80.6
RPMI 5 mM glucose + 10% dialyzed FBS, 0.0211 µM	19	34.5	11.2
RPMI 5 mM glucose + 10% dialyzed FBS, 0.0632 µM	14.9	28	13.9
RPMI 5 mM glucose + 10% dialyzed FBS, 0.19 µM	13.8	27.7	13.5
RPMI 5 mM glucose + 10% dialyzed FBS, 0.569 µM	13.7	24.2	14.1
RPMI 5 mM glucose + 10% dialyzed FBS, 1.71 µM	13.7	26.1	13.7
RPMI 5 mM glucose + 10% dialyzed FBS, 5.12 µM	17.5	20.2	13.2
RPMI 5 mM glucose + 10% dialyzed FBS, 15.4 µM	16.8	21	11.6
RPMI 5 mM glucose + 10% dialyzed FBS, 46.1 µM	7.39	11.9	11.8

AUC of viability dose-response curve
Conditions	HPLM + 10% dialyzed FBS	RPMI 5 mM glucose + 10% FBS	RPMI 5 mM glucose + 10% dialyzed FBS
NOMO1 [1]	125	135	143
P12-Ichikawa [2]	135	142	171

CC/C(=C(/CC)c1ccc(O)cc1)c1ccc(O)cc1
AUC of viability dose-response curve
Conditions	NOMO1 [1]	P12-Ichikawa [2]	SEM cells [3]
HPLM + 10% dialyzed FBS	442	463	473
RPMI 5 mM glucose + 10% FBS	465	457	460
RPMI 5 mM glucose + 10% dialyzed FBS	429	436	421

Cc1ccc(C(N)=O)cc1Nc1nccc(-c2cn(C(C)C)c3cnccc23)n1
cell viability [%], SEM cells [6]
Conditions	HPLM + 10% dialyzed FBS	RPMI 5 mM glucose + 10% dialyzed FBS
0.000781 µM	99	109
0.00234 µM	118	128
0.00702 µM	113	124
0.0211 µM	111	113
0.0632 µM	100	113
0.19 µM	88	87.3
0.569 µM	75	64.1
1.71 µM	80	71
5.12 µM	61.4	52.5
15.4 µM	29	34.8
46.1 µM	16.7	12.7

AUC of viability dose-response curve
Conditions	HPLM + 10% dialyzed FBS	RPMI 5 mM glucose + 10% FBS	RPMI 5 mM glucose + 10% dialyzed FBS
P12-Ichikawa [2]	463	459	451
SEM cells [3]	356	342	326

C[C@@H](Oc1ccc2[nH]nc(/C=C/c3cnn(CCO)c3)c2c1)c1c(Cl)cncc1Cl
cell viability [%]
Conditions	NOMO1 [4]	P12-Ichikawa [5]	SEM cells [6]
HPLM + 10% dialyzed FBS, 0.000781 µM	99.5	91.7	90.3
HPLM + 10% dialyzed FBS, 0.00234 µM	102	88.7	86.4
HPLM + 10% dialyzed FBS, 0.00702 µM	98.9	93.6	85.9
HPLM + 10% dialyzed FBS, 0.0211 µM	93.9	94.2	85.9
HPLM + 10% dialyzed FBS, 0.0632 µM	99.9	94.2	85.6
HPLM + 10% dialyzed FBS, 0.19 µM	89.7	86.2	58.6
HPLM + 10% dialyzed FBS, 0.569 µM	86	83.9	31.3
HPLM + 10% dialyzed FBS, 1.71 µM	86.4	88.3	37.2
HPLM + 10% dialyzed FBS, 5.12 µM	70.9	86.2	20
HPLM + 10% dialyzed FBS, 15.4 µM	38.4	12.2	14.8
HPLM + 10% dialyzed FBS, 46.1 µM	41.3	51.3	30.9
RPMI 5 mM glucose + 10% FBS, 0.000781 µM	94.6	85.9	118
RPMI 5 mM glucose + 10% FBS, 0.00234 µM	108	89.8	136
RPMI 5 mM glucose + 10% FBS, 0.00702 µM	89.2	89.4	103
RPMI 5 mM glucose + 10% FBS, 0.0211 µM	86	94.3	103
RPMI 5 mM glucose + 10% FBS, 0.0632 µM	80.9	100	108
RPMI 5 mM glucose + 10% FBS, 0.19 µM	83.6	89.5	75.5
RPMI 5 mM glucose + 10% FBS, 0.569 µM	89.3	93.9	32.7
RPMI 5 mM glucose + 10% FBS, 1.71 µM	76.3	89.7	42.8
RPMI 5 mM glucose + 10% FBS, 5.12 µM	74.2	75.9	15.6
RPMI 5 mM glucose + 10% FBS, 15.4 µM	40	19.3	13.8
RPMI 5 mM glucose + 10% FBS, 46.1 µM	33.9	38	21
RPMI 5 mM glucose + 10% dialyzed FBS, 0.000781 µM	82.9	78.3	82.4
RPMI 5 mM glucose + 10% dialyzed FBS, 0.00234 µM	92.3	92.2	84.6
RPMI 5 mM glucose + 10% dialyzed FBS, 0.00702 µM	89	83.8	82
RPMI 5 mM glucose + 10% dialyzed FBS, 0.0211 µM	85.2	90.3	73.5
RPMI 5 mM glucose + 10% dialyzed FBS, 0.0632 µM	92.8	94.6	80
RPMI 5 mM glucose + 10% dialyzed FBS, 0.19 µM	99.1	86.1	50.9
RPMI 5 mM glucose + 10% dialyzed FBS, 0.569 µM	87.4	76.7	17.5
RPMI 5 mM glucose + 10% dialyzed FBS, 1.71 µM	73.5	86.8	33.7
RPMI 5 mM glucose + 10% dialyzed FBS, 5.12 µM	80.9	88.6	12.4
RPMI 5 mM glucose + 10% dialyzed FBS, 15.4 µM	40.9	23.5	10.9
RPMI 5 mM glucose + 10% dialyzed FBS, 46.1 µM	34.9	41.6	20.9

AUC of viability dose-response curve
Conditions	HPLM + 10% dialyzed FBS	RPMI 5 mM glucose + 10% FBS	RPMI 5 mM glucose + 10% dialyzed FBS
NOMO1 [1]	401	379	381
P12-Ichikawa [2]	386	385	374

COc1cc(Oc2ccnc3cc(OC)c(OC)cc23)ccc1NC(=O)NC(C)c1nccs1 (stereo unspecified)
AUC of viability dose-response curve
Conditions	NOMO1 [1]	P12-Ichikawa [2]	SEM cells [3]
HPLM + 10% dialyzed FBS	444	449	453
RPMI 5 mM glucose + 10% FBS	463	446	440
RPMI 5 mM glucose + 10% dialyzed FBS	462	450	439

CC(=O)NC(C)c1ccc(Oc2ccc(OC(C)C)cc2)cc1 (stereo unspecified)
AUC of viability dose-response curve
Conditions	HPLM + 10% dialyzed FBS	RPMI 5 mM glucose + 10% FBS	RPMI 5 mM glucose + 10% dialyzed FBS
P12-Ichikawa [2]	454	440	450
SEM cells [3]	469	438	449
